# Reference: patent US20240174680A1, “CDK2 INHIBITORS AND METHODS OF USING THE SAME” (Cedilla Therapeutics, Inc., priority 2021, published 2024)
# Biological target: CDK2/Cyclin E1 (Homo sapiens, UniProt P24941)
# Experiment: CDK2/Cyclin E1 Caliper LabChip EZ Reader mobility shift assay
# Format: biochemical
# Parameters: purchased Eurofins 14-475
# Settings: read-out: Caliper Assay (CDK2/CCNE1): IC50
# In short: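 Mobility-shift kinase assay: compound titrations preincubated 30 min with enzyme and ATP, reaction started with 5-FAM-QSPKKG-CONH2 peptide. Final 2.5 nM CDK2/Cyclin E1, 100 μM ATP, 1.5 μM peptide, HEPES pH 7.5; stopped with EDTA after 100 min. IC50 from four-parameter fit of normalized conversion ratio.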
row,Compound,IC50 [nM]
1,CC1(C)C[C@@H]1C(=O)N1CC2(CN(C(=O)c3cnn(Cc4ccccc4)c3)C[C@H]2C(=O)N[C@@H]2CC[C@@H]2O)C1 [I-201B],> 10000
2,Cc1ccc(CNC(=O)[C@@H]2CN(C(=O)c3cnn(Cc4ccccc4)c3)CC23CN(C(=O)[C@H]2CC2(C)C)C3)cn1 [I-364],> 10000
3,"CNC(=O)[C@@H](NC(=O)[C@@H]1CN(Cc2cnc[nH]2)CC12CN(C(=O)[C@H]1CC1(C)C)C2)[C@@H](C)OCc1ccccc1 [I-77A, (S)-6-((1H-imidazol-5-yl)methyl)-N-((2S,3R)-3-(benzyloxy)-1-(methylamino)-1-oxobutan-2-yl)-2-((S)-2,2-dimethylcyclopropane-1-carbonyl)-2,6-diazaspiro[3.4]octane-8-carboxamide]",> 10000
4,CNC(=O)[C@@H](NC(=O)[C@@H]1CN(C(=O)c2cncs2)CC12CN(Cc1cnco1)C2)[C@@H](C)OCC12CCC(CC1)OC2 [I-350],> 10000
5,CNC(=O)[C@@H](NC(=O)C1CN(Cc2n[nH]c3ccccc23)CC12CN(C(=O)[C@H]1CC1(C)C)C2)[C@@H](C)OCc1ccccc1 (some centres unmarked) [I-159],> 10000
6,COC[C@H]1CCCN(C(=O)[C@H](C)NC(=O)[C@@H]2CN(C(=O)c3cncs3)CC23CN(C(=O)[C@H]2CC2(C)C)C3)C1 [I-325],1000 to 10000
7,CO[C@H](C)[C@H](NC(=O)[C@@H]1CN(C(=O)c2cnn(C)c2)CC12CN(C(=O)[C@H]1CC1(C)C)C2)C(=O)N1CCCCC1 [I-303],> 10000
8,CNC(=O)[C@@H](NC(=O)[C@@H]1CN(C(=O)c2cnn(Cc3ccccc3)c2)CC12CN(C(=O)C1(CCF)CC1)C2)[C@@H](C)OCc1ccccc1 [I-117A],1000 to 10000
9,CNC(=O)[C@@H](NC(=O)[C@@H]1CN(C(=O)Cc2cn[nH]c2)CC12CN(C(=O)[C@H]1CC1(C)C)C2)[C@@H](C)OCc1ccccc1 [I-358],> 10000
10,CNC(=O)[C@@H](NC(=O)[C@@H]1CN(Cc2cn[nH]c2)CC12CN(C(=O)[C@H]1CC1(C)C)C2)[C@@H](C)OCc1ccccc1 [I-50A],> 10000
11,C[C@H](NC(=O)[C@@H]1CN(C(=O)c2cnn(Cc3ccccc3)c2)CC12CN(C(=O)[C@H]1CC1(C)C)C2)c1cccc(F)c1 [I-127A],1000 to 10000
12,C[C@@H](OCC12CCC(CC1)OC2)[C@H](NC(=O)[C@@H]1CN(C(=O)c2cnco2)CC12CN(C(=O)C(C)(C)C1CC1)C2)C(C)(C)O [I-448],1000 to 10000
13,CCCCC1CC1C(=O)N1CC2(CN(C(=O)c3cnn(Cc4ccccc4)c3)C[C@H]2C(=O)N[C@H](C(=O)NC)[C@@H](C)OCc2ccccc2)C1 (some centres unmarked) [I-94A],> 10000
14,CO[C@H]1COCC[C@@H]1NC(=O)[C@@H]1CN(C(=O)c2cnn(Cc3ccccc3)c2)CC12CN(C(=O)[C@H]1CC1(C)C)C2 [I-131A],> 10000
15,CNC(=O)C(NC(=O)[C@@H]1CN(C(=O)c2cnn(Cc3ccccc3)c2)CC12CN(C(=O)[C@H]1CC1(C)C)C2)c1ccc(C)nn1 (some centres unmarked) [I-421],1000 to 10000
16,"CNC(=O)[C@@H](NC(=O)[C@@H]1CN(C(=O)c2cn[nH]c2)CC12CN(C(=O)CC1CC1)C2)[C@@H](C)OCc1ccccc1 [I-41A, (S)—N-((2S,3R)-3-(benzyloxy)-1-(methylamino)-1-oxobutan-2-yl)-2-(2-cyclopropylacetyl)-6-(1H-pyrazole-4-carbonyl)-2,6-diazaspiro[3.4]octane-8-carboxamide]",> 10000
17,C[C@@H](OCC1CCC(F)(F)CC1)[C@H](NC(=O)[C@@H]1CN(C(=O)c2cncs2)CC12CN(C(=O)[C@H]1CC1(C)C)C2)C(=O)N1C2CCC1COC2 [I-468],≤ 10
18,CN(C(=O)[C@H]1CCCN(C(=O)[C@@H]2CN(C(=O)c3cnn(Cc4ccccc4)c3)CC23CN(C(=O)[C@H]2CC2(C)C)C3)C1)C1CCCCC1 [I-179],1000 to 10000
19,CNC(=O)[C@@H](NC(=O)[C@H]1CN(C(=O)c2cnn(Cc3ccccc3)c2)CC12CN(C(=O)[C@H]1CC1(C)C)C2)[C@@H](C)OCC1CCC1 [I-144B],1000 to 10000
20,CNC(=O)[C@@H](NC(=O)[C@H]1CN(C(=O)c2cnn(CC3CCOCC3)c2)CC12CN(C(=O)[C@H]1CC1(C)C)C2)[C@@H](C)OCc1ccccc1 [I-95B],> 10000
21,CC1(C)C[C@@H]1C(=O)N1CC2(CN(C(=O)c3cnn(Cc4ccccc4)c3)C[C@H]2C(=O)NC2CCCN(C(=O)c3ccccc3)C2)C1 (some centres unmarked) [I-59A],> 10000
22,CNC(=O)[C@@H](NC(=O)[C@@H]1CN(C(=O)C2CCOCC2)CC12CN(C(=O)[C@H]1CC1(C)C)C2)[C@@H](C)OCc1ccccc1 [I-38A],> 10000
23,CC1(C)C[C@@H]1C(=O)N1CC2(CN(C(=O)c3cnn(Cc4ccccc4)c3)C[C@H]2C(=O)N[C@@H]2CCCN(CC3CCCCC3)C2)C1 [I-212],1000 to 10000

# Continued, values first:
row,IC50 [nM],Compound
1,1000 to 10000,CC1(C)C[C@@H]1C(=O)N1CC2(CN(C(=O)c3cncs3)C[C@@H]2C(=O)N[C@@H](COCC2CCCCC2)C(=O)N2CCCCC2)C1 [I-293]
2,10 to 100,CC1(C)C[C@@H]1C(=O)N1CC2(CN(C(=O)c3cncs3)C[C@H]2C(=O)NC(c2cccc(C3CCCCC3)n2)C2CCCO2)C1 (some centres unmarked) [I-495]
3,1000 to 10000,C[C@@H](OCC1CCC(F)(F)CC1)[C@H](NC(=O)[C@H]1CN(C(=O)c2cn[nH]c2)CC12CN(C(=O)C1(C(F)(F)F)CC1)C2)C(=O)N1CCC(F)(F)CC1 [I-188B]
4,≤ 10,C[C@@H](OCC1CCCCC1)[C@H](NC(=O)C1CN(C(=O)c2cncs2)CC12CN(C(=O)[C@H]1CC1(C)C)C2)C(=O)N1CCC[C@@H](CO)C1 (some centres unmarked) [I-197]
5,≤ 10,C[C@@H](OCC12CCC(CC1)CC2)[C@H](NC(=O)[C@@H]1CN(C(=O)c2cncs2)CC12CN(C(=O)[C@H]1CC1(C)C)C2)C(C)(C)O [I-304]
6,100 to 1000,CNC(=O)[C@@H](NC(=O)[C@H]1CN(C(=O)c2cnn(Cc3ccccc3)c2)CC12CN(C(=O)[C@H]1CC1(C)C)C2)[C@@H](C)OCC1CCCCC1 [I-123B]
7,10 to 100,C[C@@H](OCC1CCC(F)(F)CC1)[C@H](NC(=O)[C@H]1CN(C(=O)c2cnn(Cc3ccc(F)cc3)c2)CC12CN(C(=O)[C@H]1CC1(C)C)C2)C(=O)N1CCC(F)(F)CC1 [I-164B]
8,10 to 100,C[C@@H](OC1(C2CCCCC2)CC1)[C@H](NC(=O)[C@@H]1CN(C(=O)c2cncs2)CC12CN(C(=O)[C@H]1CC1(C)C)C2)C(=O)N1CCCCC1 [I-357]
9,≤ 10,C[C@@H](OCC1CCC(F)(F)CC1)[C@H](NC(=O)[C@@H]1CN(C(=O)c2cncs2)CC12CN(C(=O)[C@H]1CC1(C)C)C2)C(=O)N1CCC(O)CC1 [I-383]
10,≤ 10,C[C@@H](OCC1CCCCC1)[C@H](NC(=O)[C@@H]1CN(C(=O)c2cnn(Cc3ccccc3)c2)CC12CN(C(=O)[C@H]1CC1(C)C)C2)C(=O)NCC(C)(C)C(=O)O [I-472]
11,≤ 10,C[C@@H](OCC1CCCCC1)[C@@H](COCC1CCCCC1)NC(=O)[C@@H]1CN(C(=O)c2cncs2)CC12CN(C(=O)[C@H]1CC1(C)C)C2 [I-282]
12,100 to 1000,CNC(=O)[C@@H](NC(=O)[C@@H]1CN(C(=O)c2cnc(CC3CC3)s2)CC12CN(C(=O)[C@H]1CC1(C)C)C2)[C@@H](C)OCC1CCCCC1 [I-177A]
13,100 to 1000,CNC(=O)[C@@H](NC(=O)[C@@H]1CN(C(=O)c2nncs2)CC12CN(C(=O)[C@H]1CC1(C)C)C2)[C@@H](C)OCC1CCCCC1 [I-246]
14,10 to 100,C[C@@H](OCC1CCCCC1)[C@H](NC(=O)[C@@H]1CN(C(=O)c2cnn(Cc3ccccc3)c2)CC12CN(C(=O)[C@H]1CC1(C)C)C2)C(=O)N1CC[C@@H]1CN [I-270]
15,100 to 1000,CNC(=O)[C@@H](NC(=O)[C@H]1CN(C(=O)c2cnn(Cc3ccccc3)c2)CC12CN(C(=O)C(C)(C)C)C2)[C@@H](C)OCC1CCCCC1 [I-174B]
